ChEMBL document CHEMBL1201861, “Genomics of Drug Sensitity in Cancer screening data, Wellcome Trust Sanger Institute”

What was measured:
Assay in all cases: cells
Hs-578T = format: functional, cell-based, Homo sapiens; conditions: Homo sapiens, Hs-578T
Description: SANGER: Inhibition of human Hs-578-T cell growth in a cell viability assay.

HMV-2 cell line = format: functional, cell-based, Homo sapiens; conditions: Homo sapiens, HMV-2;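 note: growth inhibition of HMV-II cells, read out with a cell viability assay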
Description: SANGER: Inhibition of human HMV-II cell growth in a cell viability assay.

HN = format: functional, cell-based, Homo sapiens; conditions: Homo sapiens, HN
Description: SANGER: Inhibition of human HN cell growth in a cell viability assay.

P12-Ichikawa = format: functional, cell-based; conditions: Homo sapiens
MZ1-PC = format: functional, cell-based, Homo sapiens; conditions: Homo sapiens, MZ1-PC;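 note: cell viability assay measuring growth inhibition of human MZ1-PC cells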
Description: SANGER: Inhibition of human MZ1-PC cell growth in a cell viability assay.

RCC10RGB = format: functional, cell-based, Homo sapiens; conditions: Homo sapiens, RCC10RGB;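 note: growth inhibition of human RCC10RGB cells, read out by a cell viability assay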
Description: SANGER: Inhibition of human RCC10RGB cell growth in a cell viability assay.

Capan-2 = format: functional, cell-based, Homo sapiens; conditions: Homo sapiens, Capan-2;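 note: Capan-2 cell growth inhibition, read out with a viability assay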
Description: SANGER: Inhibition of human Capan-2 cell growth in a cell viability assay.

BB65-RCC = format: functional, cell-based, Homo sapiens; conditions: Homo sapiens, BB65-RCC;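 note: growth inhibition of the cell line, measured with a cell viability assay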
Description: SANGER: Inhibition of human BB65-RCC cell growth in a cell viability assay.

MDA-MB-157 = format: functional, cell-based, Homo sapiens; conditions: Homo sapiens, MDA-MB-157
Description: SANGER: Inhibition of human MDA-MB-157 cell growth in a cell viability assay.

DJM-1 = format: functional, cell-based, Homo sapiens; conditions: Homo sapiens, DJM-1;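 note: growth inhibition of human DJM-1 cells, read out by a cell viability assay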
Description: SANGER: Inhibition of human DJM-1 cell growth in a cell viability assay.

ES6 = format: functional, cell-based, Homo sapiens; conditions: Homo sapiens, ES6;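 note: growth inhibition of human ES6 cells, read out with a cell viability assay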
Description: SANGER: Inhibition of human ES6 cell growth in a cell viability assay.

MKN-7 = format: functional, cell-based, Homo sapiens; conditions: Homo sapiens, MKN-7;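 note: growth inhibition of MKN-7 cells, read out with a cell viability assay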
Description: SANGER: Inhibition of human MKN7 cell growth in a cell viability assay.

NCI-H1651 = format: functional, cell-based, Homo sapiens; conditions: Homo sapiens, NCI-H1651;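 note: Read-out is a cell viability assay, with IC50 expressing inhibition of NCI-H1651 cell growth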
Description: SANGER: Inhibition of human NCI-H1651 cell growth in a cell viability assay.

LS-411N = format: functional, cell-based, Homo sapiens; conditions: Homo sapiens, LS-411N
SK-MEL-30 = format: functional, cell-based; conditions: Homo sapiens;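 note: growth inhibition of SK-MEL-30 cells, determined with a cell viability assay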
Description: SANGER: Inhibition of human SK-MEL-30 cell growth in a cell viability assay.

MKN-28 = format: functional, cell-based, Homo sapiens; conditions: Homo sapiens, MKN-28;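 note: cell viability assay read-out, IC50 reflects suppression of growth of human MKN-28 cells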
Description: SANGER: Inhibition of human MKN28 cell growth in a cell viability assay.

NCI-H1355 = format: functional, cell-based, Homo sapiens; conditions: Homo sapiens, NCI-H1355;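 note: growth inhibition of human NCI-H1355 cells, read out by a cell viability assay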
Description: SANGER: Inhibition of human NCI-H1355 cell growth in a cell viability assay.

SNU-449 = format: functional, cell-based, Homo sapiens; conditions: Homo sapiens, SNU-449
Description: SANGER: Inhibition of human SNU-449 cell growth in a cell viability assay.

COR-L105 = format: functional, cell-based, Homo sapiens; conditions: Homo sapiens, COR-L105;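 note: cell growth inhibition determined with a viability assay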
Description: SANGER: Inhibition of human COR-L105 cell growth in a cell viability assay.

NCI-H1793 = format: functional, cell-based, Homo sapiens; conditions: Homo sapiens, NCI-H1793;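 note: cell growth inhibition, read out by a cell viability assay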
Description: SANGER: Inhibition of human NCI-H1793 cell growth in a cell viability assay.

SW1088 = format: functional, cell-based, Homo sapiens; conditions: Homo sapiens, SW1088;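 note: growth inhibition of human SW1088 cells, read out by a cell viability assay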
Description: SANGER: Inhibition of human SW1088 cell growth in a cell viability assay.

BFTC-905 = format: functional, cell-based, Homo sapiens; conditions: Homo sapiens, BFTC-905
Description: SANGER: Inhibition of human BFTC-905 cell growth in a cell viability assay.

647-V = format: functional, cell-based, Homo sapiens; conditions: Homo sapiens, 647-V;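 note: growth inhibition of 647-V cells, read out with a cell viability assay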
Description: SANGER: Inhibition of human 647-V cell growth in a cell viability assay.

LAMA-84 = format: functional, cell-based; conditions: Homo sapiens;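 note: growth inhibition of LAMA-84 cells, read out with a cell viability assay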
Description: SANGER: Inhibition of human LAMA-84 cell growth in a cell viability assay.

Panc1005 = format: functional, cell-based, Homo sapiens; conditions: Homo sapiens, Panc1005;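 note: growth inhibition of human PANC-10-05 cells, measured by a cell viability assay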
Description: SANGER: Inhibition of human PANC-10-05 cell growth in a cell viability assay.

HOS = format: functional, cell-based, Homo sapiens; conditions: Homo sapiens, HOS;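 note: growth inhibition of human HOS cells, read out with a cell viability assay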
Description: SANGER: Inhibition of human HOS cell growth in a cell viability assay.

MEG-01 = format: functional, cell-based; conditions: Homo sapiens;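 note: growth inhibition of MEG-01 cells, read out by a cell viability assay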
Description: SANGER: Inhibition of human MEG-01 cell growth in a cell viability assay.

SF-268 = format: functional, cell-based, Homo sapiens; conditions: Homo sapiens, SF-268;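 note: growth inhibition of SF-268 cells determined with a cell viability assay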
Description: SANGER: Inhibition of human SF268 cell growth in a cell viability assay.

OMC-1 = format: functional, cell-based, Homo sapiens; conditions: Homo sapiens, OMC-1;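 note: growth inhibition of the OMC-1 cell line, measured by a cell viability assay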
Description: SANGER: Inhibition of human OMC-1 cell growth in a cell viability assay.

VM-CUB-1 = format: functional, cell-based; conditions: Homo sapiens;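 note: cell viability assay measuring growth inhibition of the human VM-CUB-1 cell line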
Description: SANGER: Inhibition of human VM-CUB-1 cell growth in a cell viability assay.

MSTO-211H = format: functional, cell-based, Homo sapiens; conditions: Homo sapiens, MSTO-211H
Description: SANGER: Inhibition of human MSTO-211H cell growth in a cell viability assay.

CCRF-CEM = format: functional, cell-based; conditions: Homo sapiens;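 note: inhibition of CCRF-CEM cell growth, measured by a cell viability assay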
Description: SANGER: Inhibition of human CCRF-CEM cell growth in a cell viability assay.

D-542MG = format: functional, cell-based, Homo sapiens; conditions: Homo sapiens, D-542MG
Description: SANGER: Inhibition of human D-542MG cell growth in a cell viability assay.

DMS-273 = format: functional, cell-based, Homo sapiens; conditions: Homo sapiens, DMS-273
Description: SANGER: Inhibition of human DMS-273 cell growth in a cell viability assay.

KP-N-YS = format: functional, cell-based; conditions: Homo sapiens;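 note: cell viability assay measuring inhibition of cell line growth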
Description: SANGER: Inhibition of human KP-N-YS cell growth in a cell viability assay.

CHP-212 = format: functional, cell-based, Homo sapiens; conditions: Homo sapiens, CHP-212
Description: SANGER: Inhibition of human CHP-212 cell growth in a cell viability assay.

HCC1937 = format: functional, cell-based, Homo sapiens; conditions: Homo sapiens, HCC1937;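 note: growth inhibition measured with a cell viability read-out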
Description: SANGER: Inhibition of human HCC1937 cell growth in a cell viability assay.

MeWo = format: functional, cell-based, Homo sapiens; conditions: Homo sapiens, MeWo;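 note: growth inhibition of MeWo cells, determined by a cell viability readout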
Description: SANGER: Inhibition of human Mewo cell growth in a cell viability assay.

KYSE-180 = format: functional, cell-based, Homo sapiens; conditions: Homo sapiens, KYSE-180;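 note: growth inhibition of KYSE-180 cells, read out with a cell viability assay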
Description: SANGER: Inhibition of human KYSE-180 cell growth in a cell viability assay.

HEL = format: functional, cell-based, Homo sapiens; conditions: Homo sapiens, HEL;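 note: growth inhibition of HEL cells, read out with a cell viability assay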
Description: SANGER: Inhibition of human HEL cell growth in a cell viability assay.

A2058 = format: functional, cell-based; conditions: Homo sapiens;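 note: reduction of A2058 cell growth, read out with a viability assay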
Description: SANGER: Inhibition of human A2058 cell growth in a cell viability assay.

HCC70 = format: functional, cell-based, Homo sapiens; conditions: Homo sapiens, HCC70;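 note: cell viability assay measuring how strongly the compound suppresses proliferation of HCC70 cells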
Description: SANGER: Inhibition of human HCC70 cell growth in a cell viability assay.

NCI-H2122 = format: functional, cell-based, Homo sapiens; conditions: Homo sapiens, NCI-H2122;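 note: growth inhibition of the cells, read out with a cell viability assay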
Description: SANGER: Inhibition of human NCI-H2122 cell growth in a cell viability assay.

A-427 = format: functional, cell-based, Homo sapiens; conditions: Homo sapiens, A-427;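 note: growth inhibition of human A-427 cells, read out by a cell viability assay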
Description: SANGER: Inhibition of human A427 cell growth in a cell viability assay.

UACC-257 = format: functional, cell-based, Homo sapiens; conditions: Homo sapiens, UACC-257
Description: SANGER: Inhibition of human UACC-257 cell growth in a cell viability assay.

SK-MES-1 = format: functional, cell-based, Homo sapiens; conditions: Homo sapiens, SK-MES-1;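 note: growth inhibition of human SK-MES-1 cells, read out with a cell viability assay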
Description: SANGER: Inhibition of human SK-MES-1 cell growth in a cell viability assay.

NCI-H1299 = format: functional, cell-based, Homo sapiens; conditions: Homo sapiens, NCI-H1299;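 note: growth inhibition of human NCI-H1299 cells, read out by a cell viability assay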
Description: SANGER: Inhibition of human NCI-H1299 cell growth in a cell viability assay.

YAPC = format: functional, cell-based, Homo sapiens; conditions: Homo sapiens, YAPC;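 note: growth inhibition of YAPC cells, measured with a cell viability assay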
Description: SANGER: Inhibition of human YAPC cell growth in a cell viability assay.

SK-LMS-1 = format: functional, cell-based, Homo sapiens; conditions: Homo sapiens, SK-LMS-1;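 note: growth inhibition of human SK-LMS-1 cells, read out with a cell viability assay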
Description: SANGER: Inhibition of human SK-LMS-1 cell growth in a cell viability assay.

Measured: IC50

CCOc1nc(NC(=O)Cc2cc(OC)ccc2OC)cc(N)c1C#N
> 10 µM: all assays above

CC(=O)O[C@@H]1[C@@H](OC(C)=O)[C@@H](O)[C@H](Oc2c(-c3ccc(O)cc3)oc3cc(O)cc(O)c3c2=O)O[C@H]1C
not listed: OMC-1
> 10 µM: all other assays above
